Where “and” joins values, the source holds several entries; their conditions need not be identical. Identical values can stand only once. Like-named read-outs stand apart in the source and are kept apart here.
What was measured:
[1] = test system: Acinetobacter baumannii (CIP 110431); assay type: cell-based
[2] = test system: Citrobacter farmeri (ATCC 51633); assay type: cell-based
[3] = test system: Citrobacter rodentium (ATCC 51116); assay type: cell-based
[4] = test system: Escherichia coli (ATCC 8739); assay type: cell-based
[5] = test system: Klebsiella pneumoniae (DSMZ 26371); assay type: cell-based
[6] = test system: Klebsiella variicola (DSM 15968); assay type: cell-based
[7] = test system: Pseudomonas aeruginosa (CIP 107398); assay type: cell-based
[8] = test system: Salmonella enterica (CIP 80.39); assay type: cell-based
[9] = test system: Shigella flexneri (ATCC 12022); assay type: cell-based
[10] = test system: Bacteroides thetaioataomicron (DSM 2255); test: microbe, parasite or virus in culture; assay type: cell-based
[11] = test system: Helicobacter pylori (ATCC 43504); test: microbe, parasite or virus in culture; assay type: cell-based
[12] = test system: Arthrobacter gandavensis (DSM 2447); assay type: cell-based
[13] = test system: Bacillus cereus (DSM 31); assay type: cell-based
[14] = test system: Bacillus subtilis (DSM 347); assay type: cell-based
[15] = test system: Lactococcus lactis (DSM 20481); assay type: cell-based
[16] = test system: Listeria monocytogenes (DSM 20600); assay type: cell-based
[17] = test system: Micrococcus luteus (DSM 20030); assay type: cell-based
[18] = test system: Staphylococcus aureus MRSA USA300 (ATCC BAA-1717); assay type: cell-based
[19] = test system: Staphylococcus aureus (ATCC 6538P); assay type: cell-based
[20] = test system: Clostridium botulinum (DSM 1985); test: microbe, parasite or virus in culture; assay type: cell-based
[21] = test system: Clostridium coccoides (DSM 935); test: microbe, parasite or virus in culture; assay type: cell-based
[22] = test system: Clostridium difficile (DSM 1296); test: microbe, parasite or virus in culture; assay type: cell-based
[23] = test system: Clostridium nexile (DSM 1787); test: microbe, parasite or virus in culture; assay type: cell-based
[24] = test system: Clostridium propionicum (DSM 6251); test: microbe, parasite or virus in culture; assay type: cell-based
[25] = test system: Enterococcus faecalis (DSM 13591); test: microbe, parasite or virus in culture; assay type: cell-based
[26] = test system: Lactobacillus acidophilus (DSM 20079); test: microbe, parasite or virus in culture; assay type: cell-based
[27] = test system: Propionibacterium acnes (ATCC 6919); test: microbe, parasite or virus in culture; assay type: cell-based
[28] = test system: Streptococcus pyogenes (DSM 20565); test: microbe, parasite or virus in culture; assay type: cell-based
[29] = test system: Streptococcus thermophilus (ATCC LMD-9); test: microbe, parasite or virus in culture; assay type: cell-based
[30] = test system: Mycobacterium smegmatis (ATCC 700084); assay type: cell-based
[31] = test system: Aspergillus flavus (DSM 1959); assay type: cell-based
[32] = test system: Aspergillus niger (ATCC 9142); assay type: cell-based
[33] = test system: Aspergillus ochraceus (DSM 824); assay type: cell-based
[34] = test system: Candida albicans (DSM 10697); assay type: cell-based
[35] = test system: Fusarium graminearum (DSM 1095); assay type: cell-based
[36] = test system: Fusarium oxysporum (DSM 62316); assay type: cell-based
[37] = test system: Fusarium verticillioides (DSM 62264); assay type: cell-based
[38] = test system: Caco-2 cells (ATCC HTB-37); test: cells; assay type: cell-based, human; settings: read-out: IC50 (concentration causing 50% cell death)
[39] = test system: T84 cells (ATCC CCL-248); test: cells; assay type: cell-based, human; settings: read-out: IC50 (concentration causing 50% cell death)
[40] = test system: IPEC-J2 cells; test: cells; assay type: cell-based, pig; settings: read-out: IC50 (concentration causing 50% cell death)
[41] = test system: Clostridium perfringens (ATCC 13124)
[42] = test system: human (Caco-2 and T84) and pig (IPEC-J2) intestinal cells
[43] = test system: Caco-2 cells
[44] = test system: T84 cells
[45] = test system: IPEC-J2 cells
[46] = test system: human or porcine intestinal cells grown on inserts
[47] = test system: Clostridium perfringens (ATCC 13124); test: microbe, parasite or virus in culture; settings: ATCC13124
[48] = test system: Penicillium verrucosum (DSM 12639); assay type: cell-based
[49] = test system: clinical strains of Clostridium perfringens isolated from human patients or animals; assay type: cell-based
[50] = test system: Clostridium perfringens strain (ATCC 13124) and clinical strains of Clostridium perfringens; assay type: cell-based
[51] = test system: Clostridium perfringens (ATCC13124); assay type: cell-based
[52] = test system: Clostridium perfringens (ATCC 13124); assay type: cell-based
[53] = test system: Clostridium perfringens (ATCC 13124); assay type: cell-based; remark: listed apart in the source
[54] = Clostridium perfringens, ATCC13124

CO/C1=C\C(C)=C\[C@@H](C)[C@@H](O)[C@@H](C)C/C(C)=C/C=C/[C@H](OC)[C@@H]([C@@H](C)[C@@H](O)[C@H](C)[C@@]2(O)C[C@@H](O)[C@H](C)[C@@H](C(C)C)O2)OC1=O [Bafilomycin A1]
50 µM: MIC [15] | MIC [23] | MIC [27] | MIC [37]
100 µM: MIC [2] | MIC [5] | MIC [14]
33 µM: MIC [26]
6.25 µM: MIC ([20]; Clostridium botulinum, DSM1985) | MIC ([35]; Fusarium graminearum (DSM 1095))
>100 µM: MIC [1] | MIC [3] | MIC [6] | MIC [7] | MIC [8] | MIC [9] | MIC [10] | MIC [11] | MIC [18] | MIC [21] | MIC [22] | MIC [25] | MIC [30] | MIC [32] | MIC [33] | MIC [34] | MIC [36]
191 ohm.cm2: transepithelial electrical resistance [45]
less than 1: safety factor (IC50 in the toxicity test divided by MIC on Clostridium perfringens ATCC 13124) [42]
66 µM: MIC [28]
11.8 µM: IC50 [38]
3.25 µM: MIC [31]
12.5 µM: MIC [13] | MIC [19]
61-75%: decrease in transepithelial electrical resistance [46]
3 µM: MIC [12]
25 µM: MIC [4] | MIC [16] | MIC [17] | MIC [24] | MIC [29] | MIC [41, 54]
1.8 µM: IC50 [40]
112 ohm.cm2: transepithelial electrical resistance [43]
toxic: toxicity to intestinal cells [42]
9.9 µM: IC50 [39]
118 ohm.cm2: transepithelial electrical resistance [44]
15.5 mg/L: MIC (mg/L) [41, 54]

CN(C)[C@@H]1C(O)=C(C(N)=O)C(=O)[C@@]2(O)C(O)=C3C(=O)c4c(O)cccc4[C@@](C)(O)[C@H]3C[C@@H]12 [Tetracycline]
11.7 µM and 5.2 µg/mL: MIC [47]

Destruxin B
do not change or change only slightly: change of MIC during exposure [51]
1.78 mg/L: MIC (mg/L) [41]
no permeabilisation: permeabilisation of the bacterial membrane [52]
hypercondensation of bacterial DNA: morphological phenotype (mechanism of action) [53]
not toxic: toxicity to intestinal cells [42]
> 100 µM: IC50 [38] | IC50 [39] | IC50 [40]
3 µM and 1.5 µM: MIC [49]
identical to the MIC values: minimum bactericidal concentrations (BMC values) [50]
>100 µM: MIC [1] | MIC [2] | MIC [3] | MIC [4] | MIC [5] | MIC [6] | MIC [7] | MIC [8] | MIC [9] | MIC [10] | MIC [11] | MIC [12] | MIC [13] | MIC [14] | MIC [15] | MIC [16] | MIC [17] | MIC [18] | MIC [19] | MIC [20] | MIC [21] | MIC [22] | MIC [23] | MIC [24] | MIC [25] | MIC [26] | MIC [27] | MIC [28] | MIC [29] | MIC [30] | MIC [31] | MIC [32] | MIC [33] | MIC [34] | MIC [35] | MIC [36] | MIC [37] | MIC [48]

Reference: patent US20220133842A1 (priority 2019, published 2022)
